Results: US20180098969A1, “HODGKIN LYMPHOMA THERAPY” (Purdue Pharmaceutical Products L.P., priority 2016, published 2018)

Test system: L428 cells
Assay: Xenograft in NSG mice, HE staining and immunohistochemistry
Type: in vivo
Excerpt: Immunodeficient NOD-SCID-gammac−/− (NSG) mice aged 5 to 6 weeks were purchased from Charles River (NOD.Cg-Prkdcscid Il2rgtm1Wjl/SzJ). The mice arrived two weeks before the beginning of the experiments and were housed in micro-isolator cages during the entire course of the study. Immediately prior to the injection of Hodgkin lymphoma cells, mice were exposed to 3 Gy gamma irradiation using an IBL637 ^137Cs irradiator at a dose rate of 0.61 Gy/min. From 10^3 to 10^6 cells, either from the original cell lines or following amplification, were injected intravenously via the retro-orbital sinus. The mice were sacrificed by cervical dislocation and different organs were analysed and tumoural infiltration examined using multiple techniques.
Two independent experiments were performed to investigate the dose-effect of EDO-S101 in NSG mice eight weeks after xenografting with L428 cells as in Example 8. The aim of the protocol shown in FIG. […]
The mice were sacrificed by cervical dislocation. The sampled organs consisted of the eyes (site of injection), liver, spleen and bone marrow. Following dissection of different organs, including tumours, the first portion was used for flow cytometry (FACS) and cytogenetic analyses while the second was fixed in 4% paraformaldehyde (PFA) for immunohistochemistry (IHC). To obtain a single cell suspension, the tissues were first cut into pieces. Thereafter, the cells were physically disaggregated using an 80 μm nylon cell strainer and filtered a second time through a 70 μm nylon cell strainer (BD Biosciences, Erembodegem, Belgium).
Organs were fixed in 4% PFA, trimmed and post-fixed in 70° ethanol. They were then briefly processed using a vacuum inclusion processor and paraffin blocks were prepared. Five micrometer-thick sections were cut from these blocks and the resulting sections were stained with hemotoxylin-eosine (H&E) for histopathological analysis. In addition, IHC was carried out on of the totality of liver and spleen specimens for confirmation of the spread of engrafted cells. The search for single cells or small groups of grafted Hodgkin lymphoma cells was performed using an anti-CD30 antibody (DAKO, France; 1:40, EDTA pH9 pre-treatment) and the Ventana Discovery XT IHC system. Apoptosis and tumour necrosis were analysed.
Microscopic findings were assigned a severity score based upon the following scale: “0”=within physiological limits, “1”=minimal, “2”=mild, “3”=moderate, “4”=marked, “5”=severe. This severity score was attributed according to the size and number of observed lesions.

## Cn1c(CCCCCCC(=O)NO)nc2cc(N(CCCl)CCCl)ccc21 [EDO-S101]
80 mg/kg
  tumour masses in liver and infiltration into other organs: No tumour masses were observed in the liver, nor was infiltration observed into the other organs
80 mg/kg or 60 mg/kg
  tumour cell necrosis: No cell necerosis was observed
80 mg/kg, % of mice
  Injection site: Tumour cell necrosis/apoptosis: Marked: 0.0%
  Injection site: Tumour cell necrosis/apoptosis: Mild: 0.0%
  Injection site: Tumour cell necrosis/apoptosis: Minimal: 0.0%
  Injection site: Tumour cell necrosis/apoptosis: Moderate: 0.0%
  Injection site: Tumour cell necrosis/apoptosis: No: 0.0%
  Injection site: Tumour cell necrosis/apoptosis: Overall: 100.0%
  Injection site: Tumour cell necrosis/apoptosis: Severe: 0.0%
  Injection site: Tumour infiltration: Marked: 0.0%
  Injection site: Tumour infiltration: Mild: 0.0%
  Injection site: Tumour infiltration: Minimal: 0.0%
  Injection site: Tumour infiltration: Moderate: 0.0%
  Injection site: Tumour infiltration: No: 0.0%
  Injection site: Tumour infiltration: Overall: 33.3%
  Injection site: Tumour infiltration: Severe: 33.3%
  Liver: Tumour infiltration: Marked: 0.0%
  Liver: Tumour infiltration: Mild: 0.0%
  Liver: Tumour infiltration: Minimal: 0.0%
  Liver: Tumour infiltration: Moderate: 0.0%
  Liver: Tumour infiltration: No: 100.0%
  Liver: Tumour infiltration: Overall: 0.0%
  Liver: Tumour infiltration: Severe: 0.0%
  Tumour presence: Animals with tumour infiltration in liver and in the injection area: 0.0%
  Tumour presence: Overall: 33.3%
1 * 60 mg/kg, % of mice
  Injection site: Tumour cell necrosis/apoptosis: Marked: 0.0%
  Injection site: Tumour cell necrosis/apoptosis: Mild: 0.0%
  Injection site: Tumour cell necrosis/apoptosis: Minimal: 50.0%
  Injection site: Tumour cell necrosis/apoptosis: Moderate: 0.0%
  Injection site: Tumour cell necrosis/apoptosis: No: 50.0%
  Injection site: Tumour cell necrosis/apoptosis: Overall: 100.0%
  Injection site: Tumour cell necrosis/apoptosis: Severe: 0.0%
  Injection site: Tumour infiltration: Marked: 50.0%
  Injection site: Tumour infiltration: Mild: 0.0%
  Injection site: Tumour infiltration: Minimal: 0.0%
  Injection site: Tumour infiltration: Moderate: 25.0%
  Injection site: Tumour infiltration: No: 0.0%
  Injection site: Tumour infiltration: Overall: 100.0%
  Injection site: Tumour infiltration: Severe: 25.0%
  Liver: Tumour cell necrosis/apoptosis: Marked: 0.0%
  Liver: Tumour cell necrosis/apoptosis: Mild: 0.0%
  Liver: Tumour cell necrosis/apoptosis: Minimal: 0.0%
  Liver: Tumour cell necrosis/apoptosis: Moderate: 0.0%
  Liver: Tumour cell necrosis/apoptosis: No: 100.0%
  Liver: Tumour cell necrosis/apoptosis: Overall: 0.0%
  Liver: Tumour cell necrosis/apoptosis: Severe: 0.0%
